Data taken from patent publication US20200222347A1, “ANTIMICROBIALS AND METHODS OF USE THEREOF” (priority 2013, published 2020).
“Also recorded” adds a separate entry of the source.

How the values were obtained:
C difficile = assay: Kirby-Bauer disc diffusion antimicrobial susceptibility; type: cell-based; details: 100 mM, carrier water; 48 hours for anaerobes
P. acnes 6919 = assay: as above; type: cell-based; details: 100 mM, carrier water
C. albicans = assay: as above; type: cell-based, Candida albicans; details: 100 mM, carrier water
[1] = system: E. coli, ATTC 8739 and ATCC 43895; assay: as above; type: cell-based; details: 100 mM, carrier water; 18-24 hours for aerobes
S. aureus 33591 (MRSA) = assay: as above; type: cell-based, Staphylococcus aureus; details: 100 mM, carrier water; 18-24 hours for aerobes
K. pneumoniae = assay: as above; type: cell-based; details: 100 mM, carrier water; 18-24 hours for aerobes
[2] = system: Staphylococcus epidermidis ATCC 51625 (MRSE); assay: In vitro antimicrobial test (FIG. 32); type: cell-based
Legionella 43662 = type: cell-based
all bacteria tested = assay: In vitro antimicrobial susceptibility, whole panel; type: cell-based
EGF = assay: Local growth hormones in tape stripped mouse skin wound by ELISA (FIG. 11, FIG. 13, Example 5); type: in vivo, mice
Experimental: (§1) Four different conditions were used: mice had back skin tape stripped and the stripped site (wound) was infected with P. aeruginosa; mice had back skin stripped and were not infected, mice had taped stripped, infected and treated with PCA, mice were tape stripped, uninfected, and treated with PCA. When used, the PCA test reagent was applied topically in an aqueous solution on the stripped site at two hours and 24 hours.
(§2) The testing reagents consisted of and PCA formulated at one dose, 25 mM, in an aqueous solution. Levels of IGF-1, TGF-β, and EGF levels in the skin tissue at 48 hours were measured by ELISA. There were two control groups; the stripped skin and the stripped skin and infected.

IGF-1 = assay: as above; type: in vivo, mice
Experimental: as §1, §2

TGF-β = assay: as above; type: in vivo, mice
Experimental: as §1, §2

[3] = system: Pseudomonas Aeruginosa ATCC 700888 biofilm; assay: Drip flow biofilm reactor, PCA coated cloth and sintered mesh, Example 7; type: cell-based
From the text: The cloth was dried when tested.

[4] = system: normal human skin bacterial resident flora; assay: Human skin disinfection study, Loma Linda, Phase IV; type: in vivo; details: for no growth cultures results after treatment, anaerobic / no growth cultures results after treatment, Aerobic: Phase IV, two applications
Experimental: Method: The variations in materials and methods in this phase were based upon results of the previous phases. They included changes in the solution, the method of dissolving the PCA, the timing of skin application, plus using two applications to simulate the present day recommendations of surgical skin preparation.
The method placed the 20 grams of ground PCA in sterile container with volume markers. Then added 85 ml of 91% isopropyl alcohol; warm and shake. […] A repeat of warming and shaking was instituted. The container was filled to 100 ml, warm and repeated the shaking. It took perhaps 15 to 20 minutes for the ground crystals to dissolve.
An area was marked at 4 corners on the anterior axilla area of both shoulders. There was a topical reagent application. After 5 minutes a second application was made. The control group was again Chloroprep®. The experimental side was applied with manual motion and pressure on a sterile sponge soaked with the PCA solution. The subjects put hands on head for 10 minutes and then 10 minutes of moving arms around. Culture #1 was harvested with scraping at 20 minutes post 2nd application. Subjects rested their arms at side for 40 minutes which is 60 minutes after the first application and 40 minutes after culture #1. A second culture is taken with scraping. The post application cultures were taken of each shoulder skin area with scraping with back side of a sterile surgical knife blade to maximize the yield.

Propionibacterium acnes = assay: Human skin disinfection study, species analysis of cultures; type: in vivo; details: Phase IV
Experimental: Phase 1: The active test reagent was topically applied 1.54% PCA in sterile water to the anterior shoulder region. This 1.54% solution of PCA in water was used effectively in our prior animal wound studies. The controls were Chloroprep (2% Chlorhexidine in 70% isopropyl alcohol) and Betadine (9.0% to 12.0% available iodine in water). Cultures were taken before application and 20 minutes after application. The initial harvest was by a surface swab. Application was by soaked sponge, without force or scrubbing. The second harvest was performed with the back edge of a sterile knife blade scraping with pressure in attempt to maximize the harvest from the deeper sebaceous glands and hair follicles. The specimens were placed in culture media. Bacteriology was performed at WuXiAppTec in Marrietta, Ga.
Phase 2 included eleven medical students and was same method as Phase 1. However the PCA vehicle was changed to 70% isopropyl alcohol. This allowed a higher concentration of PCA than possible in sterile water, 10%. Phase 2a: The 70% isopropyl alcohol vehicle was tested for its bactericidal properties. […] In this way it was learned what specific bacterial strains PCA could eliminate or reduce.
Cultures were stored in ice and shipped in FedEx ice box to WuXiapptec in Marietta, Ga. for aerobic and anaerobic cultures and held for 21 days. […]

[5] = system: normal human skin bacterial resident flora; assay: Summary of the 4 Phase Testing at Loma Linda; type: in vivo
Experimental: A randomized double blinded study was performed at Loma Linda Medical School. It involved 4 phases over two years' time.

[6] = system: Pseudomonas aeruginosa ATCC9027; assay: Paper disc test with water or propylene glycol, Example 10
[7] = system: Pseudomonas Aeruginosa ATCC 700888 biofilm; assay: Single spray on biofilm on glass slides, time study, Example 8; details: for log reduction: 30% PCA spray in isopropyl alcohol, vs positive control slides
[8] = 25 mM at 2 and 24 hours, tape stripped and infected with P. aeruginosa, 48 hours (FIG. 13)

SMILES: O=C(O)c1ccc(O)c(O)c1 [PCA, Protocatechuic acid]
- effectiveness against C. difficile (growth inhibition) (C difficile): effective
- effectiveness against P. acnes (growth inhibition) (P. acnes 6919): effective; also recorded: able to kill; also recorded: bactericidal
- effectiveness against C. albicans (C. albicans): effective; also recorded: susceptible
- effectiveness against E. coli [1]: effective
- effectiveness against S. aureus 33591 (MRSA) (S. aureus 33591 (MRSA)): effective
- effectiveness against K. pneumoniae (K. pneumoniae): effective
- effectiveness against MRSE ATCC 51625 [2]: effective
- effectiveness against Legionella 43662 (Legionella 43662): effective
- antibiotic properties (summary) (all bacteria tested): broad spectrum antibiotic
- overall effectiveness in the in vitro panel (all bacteria tested; 100 mM, carrier water, 18-24 hours for aerobes, 48 hours for anaerobes): effective against all bacteria tested
- EGF level in skin tissue (EGF; [8]): decreased; also recorded: lowest
- local growth hormone level of EGF (EGF; 25 mM, site of the untreated skin wound (FIG. 11C)): increased
- IGF-1 level in skin tissue (IGF-1; [8]): moderately elevated; also recorded: optimizes the IGF-1 production
- local growth hormone level of IGF-1 (IGF-1; 25 mM, site of the untreated skin wound (FIG. 11A)): increased
- optimal dose to optimize local growth hormones (IGF-1; IGF-1, TGF-β and EGF together, rodent skin wound): Approximately 25 mM
- TGF-β level in skin tissue (TGF-β; [8]): decreased
- local growth hormone level of TGF-Beta (TGF-β; 25 mM, site of the untreated skin wound (FIG. 11B)): increased
- effectiveness against Pseudomonas biofilm ([3]; 10% concentration of PCA (FIG. 33)): not as effective
- effectiveness against Pseudomonas biofilm ([3]; 20% concentration of PCA in 70% isopropyl alcohol, dried coating (FIG. 34)): effective; also recorded: very effective
- removal of potential pathogens from skin ([4]; Phase IV solution: 20 grams of PCA, 91% isopropyl alcohol, 5 ml of essence of peppermint oil): effective in removing potential pathogens
- no growth cultures results after treatment, anaerobic ([4]; 20 minutes): 4/12
- no growth cultures results after treatment, Aerobic ([4]; 20 minutes, PCA in 91% isopropyl alcohol and essential oil of peppermint): 12/12
- no growth cultures results after treatment, Aerobic ([4]; 60 minutes): 7/12
- no growth cultures results after treatment, anaerobic ([4]; 60 minutes): 6/12
- P. acnes growth after treatment (Propionibacterium acnes; culture #14, 20 minutes): no growth
- P. acnes growth after treatment (Propionibacterium acnes; culture #19, 60 minutes): no growth
- optimal dose to act as a human skin disinfectant ([5]; in vivo): greater than 10%
- removal of pathogens from human skin ([5]; solutions at 10% or higher): removed all pathogens
- inhibition of growth under the sample ([6]; PPG): I
- zone of inhibition ([6]; PPG): 4 mm
- inhibition of growth under the sample ([6]; Water): I
- zone of inhibition ([6]; Water): 10 mm
- log reduction ([7]; after 30 minutes): 3.3 log
- log reduction ([7]; after 60 minutes): 2.2 log
- reduction in the number colony forming units ([7]; 30% PCA spray, after 60 minutes): 99.9%
